Several values for one entry are separate records, joined by “and”; a condition that tells them apart may be missing. Equal entries are not always repeated.
Assays:
FLT3 ITD = assay: FRET binding kinetics and residence time; settings: for FRET signal, binding kinetics: FLT3 ITD
Protocol: In vitro kinase assays were performed at DiscoverX. […] Kinases used in the panel are tagged with DNA barcodes. Screening “hits” are identified by measuring the amount of kinase still bound to the immobilized ligand after compound treatment by using a quantitative, precise, and ultra-sensitive qPCR method that detects the associated DNA label. […] Residence time determination assays were conducted by Enzymlogic.

MOLM14 cells = assay: MOLM14-luciferase intravenous xenograft, bioluminescence and survival; type: in vivo; settings: MOLM14-recipient mice; once daily; in words
Excerpt: Tumor cell growth was monitored by imaging for bioluminescence as a measure of disease burden.
Mice were imaged 3 days later and sorted into 5 mice per group so that luminescence (as a surrogate marker for disease burden) was equal. Dosing started the same day and continued once daily, 5 days/week. Mice were imaged for efficacy once per week and body weight recorded daily. Mice were euthanized when 20% body weight loss, hind limb paralysis, or lack of ability to eat/drink (moribund) were noted. […] Blood samples were collected at indicated time points, and levels of […] in plasma were quantified by LC/MS. Western blots of tumors resected from animals after dosing was performed as described above.

[1] = test system: Tet2-/-:Flt3ITD/ITD leukemic cells; assay: Tet2-/-:Flt3ITD/ITD AML transplant mouse model; type: in vivo, mice; set-up: Neutrophils / Monocytes / WBC / Spleen weight / Spleen normal and leukemic cells, CD45.1+ / Spleen normal and leukemic cells, CD45.1- / BM Erythroid, Ter119+ / BM Erythroid, Ter119+CD71+ / BM Myeloid blasts, CD11b-Kit+ / BM Myeloid blasts, CD11b+Kit+ / BM Myeloid cells, CD11b+GR1- / BM Myeloid cells, CD11b+GR1+ / BM - Lin Neg / BM - LSK: unit not given here
Protocol: This model system specifically tracks the progression of both normal cells and leukemic cells utilizing flow cytometry to detect the presence of cell surface antigens CD45.1 or CD45.2, which are uniquely expressed only on either WT or mutant cells, respectively. […] Anemia is frequently observed in patients with AML.
6 weeks after transplant peripheral blood engraftment was analyzed. […] (A) WBC, neutrophil,and monocyte counts. […] (E) The representative flow profiles of Lin^– Sca1^+Kit^+ (LSK) cells.
Bone marrow and spleen single-cell suspension was prepared for flow cytometry analysis as described earlier ([46], [56]). Flow cytometric analysis was performed on a multiparameter analyzer 5 laser LSRII with Diva software (BD Biosciences) and the data were analyzed using FlowJo software. […]. Detailed information related to docking calculation, molecular dynamics simulations, proteomics sample preparation, and mass spectrometry and their analyses are described in Supplemental Methods.

[2] = 20 mg/kg oral 5 times a week for 6 weeks, in words
[3] = Figure 6B, spleen, individual mice
[4] = Figure 6C, bone marrow, individual mice
[5] = Figure 6D, bone marrow, individual mice
[6] = Figure 6F, bone marrow, individual mice
[7] = Post, 20 mg/kg oral 5 times a week for 6 weeks, individual mice, 20 mg/kg
[8] = Pre (before treatment), HSN748 group, individual mice

**Q.** Which “FRET signal, binding kinetics” value (FLT3 ITD; 100 nM, 7.37 min) does the source give for `CN1CCN(Cc2ccc(NC(=O)c3cncc(C#Cc4cnc5cccnn45)c3)cc2C(F)(F)F)CC1` [HSN748] here?
**A.** 1201.9

**Q.** What about the “FRET signal, binding kinetics” value (FLT3 ITD; 100 nM, 8.13 min) of the same compound?
**A.** 1255.37

**Q.** What about the “FRET signal, binding kinetics” value (FLT3 ITD; 100 nM, 8.9 min) of the same compound?
**A.** 1263.82

**Q.** What about the “FRET signal, binding kinetics” value (FLT3 ITD; 100 nM, 13.9 min) of the same compound?
**A.** 1211.36

**Q.** What about the “FRET signal, binding kinetics” value (FLT3 ITD; 100 nM, 18.9 min) of the same compound?
**A.** 1144.36

**Q.** What about the “FRET signal, binding kinetics” value (FLT3 ITD; 100 nM, 23.9 min) of the same compound?
**A.** 1077.9

**Q.** And the “FRET signal, binding kinetics” value (FLT3 ITD; 100 nM, 28.9 min)?
**A.** 1050.79

**Q.** And the “FRET signal, binding kinetics” value (FLT3 ITD; 100 nM, 38.9 min)?
**A.** 975.65

**Q.** What about the “FRET signal, binding kinetics” value (FLT3 ITD; 100 nM, 43.9 min) of the same compound?
**A.** 956.2

**Q.** What about the “FRET signal, binding kinetics” value (FLT3 ITD; 100 nM, 48.9 min) of the same compound?
**A.** 922.13

**Q.** What about the “FRET signal, binding kinetics” value (FLT3 ITD; 100 nM, 53.9 min) of the same compound?
**A.** 892.86

**Q.** What about the “FRET signal, binding kinetics” value (FLT3 ITD; 100 nM, 58.9 min) of the same compound?
**A.** 898.11

**Q.** And the “FRET signal, binding kinetics” value (FLT3 ITD; 100 nM, 63.9 min)?
**A.** 902.59

**Q.** What about the “FRET signal, binding kinetics” value (FLT3 ITD; 100 nM, 68.9 min) of the same compound?
**A.** 872.96

**Q.** What about the “FRET signal, binding kinetics” value (FLT3 ITD; 100 nM, 83.9 min) of the same compound?
**A.** 832.56

**Q.** And the “FRET signal, binding kinetics” value (FLT3 ITD; 100 nM, 98.9 min)?
**A.** 864.08

**Q.** What about the “FRET signal, binding kinetics” value (FLT3 ITD; 1000 nM, 2 min) of the same compound?
**A.** 1010.31

**Q.** What about the “FRET signal, binding kinetics” value (FLT3 ITD; 1000 nM, 2.77 min) of the same compound?
**A.** 923.69

**Q.** What about the “FRET signal, binding kinetics” value (FLT3 ITD; 1000 nM, 3.53 min) of the same compound?
**A.** 953.68

**Q.** And the “FRET signal, binding kinetics” value (FLT3 ITD; 1000 nM, 4.3 min)?
**A.** 956.11

**Q.** And the “FRET signal, binding kinetics” value (FLT3 ITD; 1000 nM, 5.07 min)?
**A.** 958.83

**Q.** What about the “FRET signal, binding kinetics” value (FLT3 ITD; 1000 nM, 5.83 min) of the same compound?
**A.** 826.74

**Q.** What about the “FRET signal, binding kinetics” value (FLT3 ITD; 1000 nM, 7.37 min) of the same compound?
**A.** 886.29

**Q.** And the “FRET signal, binding kinetics” value (FLT3 ITD; 1000 nM, 8.13 min)?
**A.** 862.35

**Q.** What about the “FRET signal, binding kinetics” value (FLT3 ITD; 1000 nM, 8.9 min) of the same compound?
**A.** 825.31

**Q.** And the “FRET signal, binding kinetics” value (FLT3 ITD; 1000 nM, 13.9 min)?
**A.** 870.86

**Q.** What about the “FRET signal, binding kinetics” value (FLT3 ITD; 1000 nM, 18.9 min) of the same compound?
**A.** 793.49

**Q.** What about the “FRET signal, binding kinetics” value (FLT3 ITD; 1000 nM, 23.9 min) of the same compound?
**A.** 753.95

**Q.** What about the “FRET signal, binding kinetics” value (FLT3 ITD; 1000 nM, 28.9 min) of the same compound?
**A.** 726.19

**Q.** What about the “FRET signal, binding kinetics” value (FLT3 ITD; 1000 nM, 38.9 min) of the same compound?
**A.** 747.74

**Q.** And the “FRET signal, binding kinetics” value (FLT3 ITD; 1000 nM, 43.9 min)?
**A.** 750.06

**Q.** What about the “FRET signal, binding kinetics” value (FLT3 ITD; 1000 nM, 48.9 min) of the same compound?
**A.** 700.07

**Q.** And the “FRET signal, binding kinetics” value (FLT3 ITD; 1000 nM, 53.9 min)?
**A.** 725.06

**Q.** What about the “FRET signal, binding kinetics” value (FLT3 ITD; 1000 nM, 58.9 min) of the same compound?
**A.** 665.35

**Q.** And the “FRET signal, binding kinetics” value (FLT3 ITD; 1000 nM, 63.9 min)?
**A.** 690.63

**Q.** What about the “FRET signal, binding kinetics” value (FLT3 ITD; 1000 nM, 68.9 min) of the same compound?
**A.** 665.35

**Q.** And the “FRET signal, binding kinetics” value (FLT3 ITD; 1000 nM, 83.9 min)?
**A.** 692.83

**Q.** What about the “FRET signal, binding kinetics” value (FLT3 ITD; 1000 nM, 98.9 min) of the same compound?
**A.** 673.59

**Q.** And the “drug occupancy compared with Gilteritinib” value (FLT3 ITD; ratio of residence times)?
**A.** 6.4 fold

**Q.** And the “effect on tumor growth and survival compared with Gilteritinib” value (MOLM14 cells)?
**A.** superior inhibitory effect

**Q.** What about the peripheral leukemic burden [1, 2] of the same compound?
**A.** significantly reduced

**Q.** What about the splenomegaly [1, 2] of the same compound?
**A.** significant normalization

**Q.** And the Spleen weight ([1]; Figure 6B, individual mice)?
**A.** 0.17 and 0.107 and 0.196 and 0.122 and 0.158 and 0.187

**Q.** What about the “Spleen normal and leukemic cells, CD45.1+” value [1, 3] of the same compound?
**A.** 58.2 and 70.6 and 58.1 and 84 and 81.3 and 63.8

**Q.** What about the “Spleen normal and leukemic cells, CD45.1-” value [1, 3] of the same compound?
**A.** 41.2 and 29 and 41.5 and 15.6 and 18.4 and 35.8

**Q.** And the “BM Erythroid, Ter119+” value [1, 4]?
**A.** 12.7 and 19.2 and 8.97 and 29.5 and 15.2 and 22.8

**Q.** And the “BM Erythroid, Ter119+CD71+” value [1, 4]?
**A.** 9.67 and 15.8 and 6.8 and 24 and 12.2 and 18.5

**Q.** What about the “BM Myeloid blasts, CD11b+Kit+” value [1, 5] of the same compound?
**A.** 3.96 and 3.4 and 3.6 and 3.84 and 4.83 and 3.69

**Q.** What about the “BM Myeloid blasts, CD11b-Kit+” value [1, 5] of the same compound?
**A.** 9.42 and 9.71 and 11 and 7.16 and 8.59 and 8.54

**Q.** And the “BM Myeloid cells, CD11b+GR1+” value [1, 5]?
**A.** 52.1 and 55.3 and 49.9 and 65.2 and 67.7 and 57.1

**Q.** And the “BM Myeloid cells, CD11b+GR1-” value [1, 5]?
**A.** 2.94 and 2.85 (2×) and 3.71 and 4.38 and 4.33

**Q.** And the “BM - LSK” value [1, 6]?
**A.** 2.74 and 1.81 and 11.5 and 3.91 and 10.5 and 1.43

**Q.** And the “BM - Lin Neg” value [1, 6]?
**A.** 6.65 and 9.27 and 4.18 and 6.14 and 7.06 and 6.48

**Q.** And the “Lin Neg KIT Pos” value [1, 6]?
**A.** 3.67 and 3.1 and 1.76 and 3.13 and 2.86 and 2.62

**Q.** What about the Monocytes [1, 7] of the same compound?
**A.** 13.39 and 2.54 and 6.28 and 2.17 and 2.79 and 6.07

**Q.** What about the Neutrophils [1, 7] of the same compound?
**A.** 7.62 and 5.15 and 6.28 and 3.6 and 4.15 and 6.27

**Q.** What about the WBC [1, 7] of the same compound?
**A.** 25.37 and 19.42 and 18.75 and 18.55 and 18.5 and 17.06

**Q.** And the Monocytes [1, 8]?
**A.** 11.55 and 6.85 and 8.38 and 2.75 and 6.53 and 18.62

**Q.** What about the Neutrophils [1, 8] of the same compound?
**A.** 11.4 and 5.22 and 11.19 and 3.45 and 7.58 and 11.64

**Q.** And the WBC [1, 8]?
**A.** 32.57 and 21.58 and 32.09 and 24.02 and 28.92 and 35.7
